Consider 3 molecules from publication PMC4347883, “Evaluation of a Triple-Helical Peptide with Quenched Fluorophores for Optical Imaging of MMP-2 and MMP-9 Proteolytic Activity” (Molecules, 2014).

Entries after “also recorded” stand apart in the source; their conditions may differ.

For series [1], the system named is gelatinase positive HT-1080 human fibrosarcoma cells. As to the kind of experiment: Confocal fluorescence microscopy of 5FAM6-THP hydrolysis in HT-1080 cells. The series is classed as cell-based. Particulars: SB-3CT 1 µM pre-incubated 30 min, then 5FAM6-THP 1 µM, 1 h, mean of n = 10 cells. The source says: Two image fields are shown per condition.
Another series deals with MMP-2. The series can be described thus: MMP-2 inhibition by SB-3CT. The series is classed as biochemical. Particulars: at SB-3CT 72-fold Ki (1 µM).
A further series addresses T1, human-MMP-2 (Homo sapiens, UniProt P08253).
T1 construct: purchased Enzo Life Sciences
T1 sequence (P08253 110-660): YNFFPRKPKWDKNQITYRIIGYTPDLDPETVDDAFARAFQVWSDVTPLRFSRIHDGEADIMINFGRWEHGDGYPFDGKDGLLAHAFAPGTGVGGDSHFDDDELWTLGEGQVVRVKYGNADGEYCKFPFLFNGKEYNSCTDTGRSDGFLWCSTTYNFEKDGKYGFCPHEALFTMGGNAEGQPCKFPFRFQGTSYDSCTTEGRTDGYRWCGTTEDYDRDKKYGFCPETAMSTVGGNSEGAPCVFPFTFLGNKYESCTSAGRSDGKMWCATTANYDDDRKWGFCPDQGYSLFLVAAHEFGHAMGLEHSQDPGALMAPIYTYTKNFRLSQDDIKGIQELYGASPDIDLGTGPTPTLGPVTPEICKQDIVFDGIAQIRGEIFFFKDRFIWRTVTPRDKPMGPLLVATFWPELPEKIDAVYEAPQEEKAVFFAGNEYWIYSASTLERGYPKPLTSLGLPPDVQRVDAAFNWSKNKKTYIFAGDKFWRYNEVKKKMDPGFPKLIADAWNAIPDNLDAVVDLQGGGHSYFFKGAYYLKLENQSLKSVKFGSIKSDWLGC
Particulars: fTHP comparison; cited from earlier work. The source says: (§1) Table 1 Enzyme kinetic parameters for gelatinase mediated hydrolysis of 5FAM-THPs. | column: KM (μM); kcat (s^−1); kcat/KM (M^−1 s^−1)

A further series deals with T2, human-MMP-9 (Homo sapiens, UniProt P14780).
T2 construct: purchased Enzo Life Sciences
T2 sequence (P14780 107-707 limits assumed): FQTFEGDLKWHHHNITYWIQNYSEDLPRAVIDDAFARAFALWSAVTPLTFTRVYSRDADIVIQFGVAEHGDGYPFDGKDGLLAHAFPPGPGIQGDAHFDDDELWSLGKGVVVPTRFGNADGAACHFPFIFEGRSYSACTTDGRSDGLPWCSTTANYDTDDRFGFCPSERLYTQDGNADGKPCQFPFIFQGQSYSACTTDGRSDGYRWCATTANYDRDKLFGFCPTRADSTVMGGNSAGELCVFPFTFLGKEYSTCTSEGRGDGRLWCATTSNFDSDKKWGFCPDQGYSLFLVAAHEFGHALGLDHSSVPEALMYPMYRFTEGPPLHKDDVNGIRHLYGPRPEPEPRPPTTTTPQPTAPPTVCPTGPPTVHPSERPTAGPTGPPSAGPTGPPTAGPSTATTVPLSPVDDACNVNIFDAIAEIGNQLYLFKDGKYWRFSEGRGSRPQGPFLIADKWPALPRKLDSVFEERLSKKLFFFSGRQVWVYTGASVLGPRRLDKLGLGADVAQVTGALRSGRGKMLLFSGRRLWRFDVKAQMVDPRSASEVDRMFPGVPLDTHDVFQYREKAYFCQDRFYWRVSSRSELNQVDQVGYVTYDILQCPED
Particulars: fTHP comparison; cited from earlier work.
From the text: as §1

Another series deals with MMP-7. Particulars: cited from earlier work.

As for `O=S(=O)(CC1CS1)c1ccc(Oc2ccccc2)cc1` (stereo not shown) [SB-3CT], in series [1], the “reduction of 5FAM6-THP fluorescence by gelatinase inhibitor” value was “greatly attenuated; also recorded: greatly reduced fluorescence levels when 5FAM6-THP was incubated with HT-1080 cells by three-fold; also recorded: low levels of fluorescence observed in SB-3CT treated HT-1080 cells”. For the same molecule, the “occupancy of MMP-2 at equilibrium” value in the series with MMP-2 is recorded as “approximately 99%”.
The Km is the substrate concentration at which the rate is half of its maximum. For orientation: kcat means the number of substrate molecules converted per active site and unit of time at saturation. As to “(GPhP)5GPK(Mca)GPPG~VVGEK(Dnp)GEN(GPhP)5-NH2 [fTHP, fluorogenic THP substrate with 7-methoxycoumarin and 2,4-dinitrophenyl groups conjugated to the ε-amino groups of Lys]”, at human-MMP-2, the Km was 4.4 µM, the kcat was 0.061 s⁻¹ and the kcat/KM is 14,002 M^−1 s^−1. Further, at human-MMP-9, the Km is 8.1 µM, the kcat was 0.044 s⁻¹ and the kcat/KM was 5,400 M^−1 s^−1.
For the molecule “GVPLSLTMGC [MMP-7 substrate bearing a heterologous donor and acceptor pair of near infrared dyes on the N- and C- termini]”, the “increase in fluorescence after digestion with MMP-7” value with MMP-7 (after digestion with MMP-7) was around 7 fold. Also, in the series with MMP-7 (near infrared donor/acceptor dye pair on N- and C-termini), the level of quenching is 85%.
